Measured values taken from patent publication US10793531B2, “Triazole derivatives and their use as PDE4 activators” (MIRONID LIMITED, priority 2015, dated 2020).
Like-named read-outs stand apart in the source and are kept apart here.

Legend:
[1] = In vitro clearance using human hepatocytes (Experiment 6); format: in vitro ADME; settings: human, cryopreserved human hepatocytes; 1 μM compound, 1 million cells/ml, 37° C.
Experimental: (§1) Human hepatocyte stability is considered the gold standard method for evaluating the hepatic metabolism of drugs in vitro. The in vitro clearance of Example A was evaluated using cryopreserved human hepatocytes according to the method of Lau et al. (Lau, Y. Y. et al. Drug Metab. Dispos. 30: 1446-1454, 2002) with minor modifications.
(§2) Cryopreserved hepatocytes were thawed in a water bath at 37° C. and transferred to a tube containing 50 ml of hepatocyte thaw medium. The hepatocytes were centrifuged at 500 rpm for 3 min. The supernatant was removed and the hepatocytes were resuspended in medium, mixed gently and centrifuged again at 500 rpm for 3 min. The supernatant was discarded and the hepatocyte pellet was gently resuspended in medium to a final density of 2 million cells/ml.
(§3) Incubations were carried out at a final test compound concentration of 1 μM. Stock solutions of the compounds were prepared in DMSO and diluted to the desired concentrations before adding to the hepatocytes. Incubations were carried out with a hepatocyte concentration of 1 million cells/ml. Samples (100 μL) were incubated at 37° C. for 0, 15, 30, 60 and 120 min in duplicate. At the end of the incubation time, 200 μl of acetonitrile with internal standard was added and the wells were sealed. […]
(§4) The samples were analysed by LC-MS/MS using a Sciex API 4000™ system.

[2] = tested on: cryopreserved human hepatocytes; assay: as above; format: in vitro ADME; settings: 1 μM compound, 1 million cells/ml, 37° C.
Experimental: as §1, §2, §3, §4

[3] = tested on: androgen-insensitive (AI) LNCaP human prostate cancer cells; assay: Xcelligence proliferation assay, androgen-insensitive LNCaP cells (Experiment 5); format: cell-based; settings: normalised cell index at 72 hours; FIG. 10
Experimental: In this study, the potential utility of PDE4 long form activators in the treatment of prostate cancer was studied using the LNCaP human prostate cancer cell line. The experiments were carried out according to the method described by Henderson et al. (Henderson, D. J. P., Byrne, A., Dulla, K., Jenster, G., Hoffmann, R., Baillie, G. S., Houslay, M. D. Br. J. Cancer 110: 1278-1287, 2014).
Androgen-sensitive (AS) LNCaP cells were maintained in RPMI1640 supplemented with 10% FBS (Seralabs), 2 mM L-glutamine and 1,000 U penicillin-streptomycin. LNCaP androgen-insensitive (AI) cells were generated in-house by culturing the LNCaP-AS cells in RPMI1640 supplemented with 10% charcoal stripped FBS, 2 mM L-glutamine and 1,000 U penicillin-streptomycin for a minimum of four weeks. All tissue culture reagents were, from Life Technologies.
Cell proliferation is measured as a function of changing electrical impedance. Values are represented by cell index number, a dimensionless unit of measurement representing the cell status, which increases as cells adhere to 96-well electrode plates and divide. […]
Cell indices were measured every 10 minutes for up to 100 hours, analysed using RICA software and normalised to the cell index of vehicle-treated cells (n=3).

[4] = Pharmacokinetic profile in male C57 mice (Experiment 7); format: in vivo, mouse
Experimental: Example A was dissolved in 5% DMA+10% Solutol+85%(10% HPBCD in water) to afford a clear dosing solution of 1 mg/mL. The dosing solution was administered to three mice at 2 mg/kg i.v. via the tail vein and to three further mice at 10 mg/kg p.o. via oral gavage. Blood samples (ca. 20 μL) were collected at 2, 5, 20 min, 1, 2, 4, 8 and 12 h after i.v. dosing and at 15, 30 min, 1, 2, 4, 8, 12 and 24 h after oral dosing. The blood samples were diluted with 3 volumes of distilled water and stored at −80° C. until analysis. The samples were analysed by UPLC-MS/MS (API 5500).

MDCK cells [5] = assay: Reversal of in vitro cyst formation in MDCK cells (Experiment 4); format: cell-based, canine; settings: compound added every 2 days from day 10 to day 20, with forskolin and vasopressin; FIG. 8
Experimental: In this study, the potential of PDE4 long form activators to reverse the formation of pre-formed cysts was evaluated. The experiment was carried out according to the method of Experiment 3. For the first 10 days, forskolin and vasopressin were added at every feed (every 2 days) but no test compound was added. For the next 10 days, the test compound, forskolin and vasopressin were added at every feed (every 2 days).
(§5) Phase-contrast images were obtained on the Motic microscope (×200 magnification) every 2 days for 20 days. Per condition, 10 images were taken (in duplicate) and the average cyst radius measured.

MDCK cells [6] = assay: Inhibition of in vitro cyst formation in MDCK cells (Experiment 3); format: cell-based, canine; settings: compound added every 2 days from day 0 to day 20, with forskolin and vasopressin; FIG. 7
Experimental: In this study, the well-established three-dimensional (3D) MDCK cell model was used to investigate the effects of PDE4 long form activators on the formation of kidney cysts and evaluate their potential in the treatment of polycystic kidney diseases. 3D cysts were generated based on the method of Mao et al. (Mao, Z., Streets, A. J., Ong, A. C. M. Am. J. Physiol. Renal Physiol. 300(6): F1375-F1384, 2011), with some modifications. MDCK cells (50,000 cells/well) were seeded into collagen (Life Technologies; final concentration 1 mg/mL), containing 17 mM NaOH in DMEM, supplemented with 2% (v/v) FBS, 2 mM L-glutamine and 2 mM L-glutamine, 1,000 U penicillin and 1,000 μg streptomycin (DMEM-2% FBS), on ice. Upon gelling at 37° C., 1 mL of DMEM-2% FBS was added along with the test compound indicated in the presence of 10 μM forskolin (Sigma) and 1 μg/mL [Arg^8]-vasopressin acetate salt (Sigma). Media was replenished every 2 days for 20 days; at every feed, test compound, forskolin and vasopressin were added.
as §5

OX161 cells = assay: Reversal of in vitro cyst formation in OX161 cells (Experiment 10); format: cell-based, human; settings: compound added every 2 days from day 10 to day 20, with forskolin; FIG. 13 Panel B
Experimental: In this study, the potential of PDE4 long form activators to reverse the formation of pre-formed cysts was evaluated in a human ADPKD patient-derived OX161 cell line. The experiment was carried out according to the method of Experiment 9. For the first 10 days, forskolin was added at every feed (every 2 days) but no test compound was added. For the. next 10 days, the test compound and forskolin were added at every feed (every 2 days).
Phase-contrast images were obtained every 2 days for 20 days. Per condition, 10 images were taken (in duplicate) and the average cyst area calculated.

With `CCc1nc(-c2ccc(Cl)c(F)c2)nn1CC(=O)NCc1cccc(F)c1` [Example A, N-(3-Fluorobenzyl)-2-[3-(4-chloro-3-fluorophenyl)-5-ethyl-1H-1,2,4-triazol-1-yl]acetamide] the half-life at 1 μM [1] was 0.9 h, the “stability in human hepatocytes (in words)” value [2] was “moderately stable” and the “proliferation of androgen-insensitive (AI) LNCaP cells (in words)” value [3] was “inhibits the proliferation”. For the same molecule, the “abnormal effects observed in the mice” value ([4]; 2 mg/kg i.v. or 10 mg/kg p.o.) was “No abnormal effects were observed”, the half-life ([4]; mouse, iv, 2 mg/kg i.v., whole blood, read-out: terminal half life after i.v. dosing (converted)) was 4.2 h and the bioavailability ([4]; mouse, oral, 10 mg/kg p.o. vs 2 mg/kg i.v., whole blood) was 66%. For the same molecule, the half-life ([4]; mouse, po, 10 mg/kg p.o., whole blood, read-out: terminal half life after oral dosing (converted)) was 4.9 h, the “in vitro cyst formation in MDCK cells, reversal (in words)” value (MDCK cells [5]) was “reversal of in vitro cyst formation” and the “in vitro cyst formation in MDCK cells, inhibition (in words)” value (MDCK cells [6]) was “inhibition of in vitro cyst formation”. For the same molecule, the “in vitro cyst formation in OX161 cells, reversal (in words)” value (OX161 cells) was “reversed in vitro cyst formation”.
